Measurements from patent US20230143604A1, “QW DOSING OF GIP RECEPTOR AGONIST PEPTIDE COMPOUNDS AND USES THEREOF” (TAKEDA PHARMACEUTICAL COMPANY LIMITED, priority 2020, published 2023).
Starred links: 1 amine or outer side, 2 acyl side, 3 side chain; linkers in the order of their positions; H or OH if unused. Non-standard residues stand in square brackets, D forms with d. Residues, ends and D or L forms follow the SMILES beside them. Groups on a side chain read outwards from the residue. *: point of attachment. C20 diacid = O=C(O)CCCCCCCCCCCCCCCCCCC(=O)*; C18 diacid = O=C(O)CCCCCCCCCCCCCCCCC(=O)*; C17 diacid = O=C(O)CCCCCCCCCCCCCCCC(=O)*; γGlu = O=C(O)[C@H](CCC(=O)[*:2])N[*:1]; NMeY = CN[C@@H](Cc1ccc(O)cc1)C(=O)O; AEEA = NCCOCCOCC(=O)O; Aib = CC(C)(N)C(=O)O

Test: Solubility in phosphate buffer pH 7.4
Protocol: Solubility of the GIPR peptides may be determined by dissolution in a phosphate buffer followed by quantitation using liquid chromatography, for example, High Performance Liquid Chromatogry (HPLC). An illustrative method is provided. For determination of the solubility of the GIPr agonist peptides, 3 mg of peptides are weighted out in a small glass vial. 100 μL of 200 mM Phosphate buffer pH 7.4 are added and the vial is sonicated/votexed as necessary for a maximum of 1 min. […] If insoluble material is observed in the tube the addition of 100 μL of buffer and mixing is repeated until complete dissolution.
3 mg of peptides are weighted out in a small glass vial. 100 uL of 200 mM Phosphate buffer pH 7.4 are added and the vial is sonicated/votexed as necessary for a maximum of 1 min. […] If insoluble material is observed in the tube the addition of 100 uL of buffer and mixing is repeated until complete dissolution.

[1] = pH 7.4, aqueous buffer, pH 7.4 Phosphate Buffer - Solubility, 200 mM Phosphate buffer pH 7.4

| Compound | solubility [1] | solubility (pH 7.4, solubility in phosphate buffer at pH 7.4, 200 mM phosphate buffer pH 7.4) | solubility (pH 7.4) | solubility (pH 7.4, aqueous buffer) |
| --- | --- | --- | --- | --- |
| CC[C@H](C)[C@H](NC(=O)[C@H](CCCCN)NC(=O)[C@H](CC(=O)O)NC(=O)[C@H](CC(C)C)NC(=O)[C@H](C)NC(=O)[C@@H](NC(=O)[C@H](CO)NC(=O)[C@H](Cc1ccc(O)cc1)NC(=O)[C@H](CC(=O)O)NC(=O)[C@H](CO)NC(=O)[C@@H](NC(=O)[C@H](Cc1ccccc1)NC(=O)[C@@H](NC(=O)CNC(=O)[C@H](CCC(=O)O)NC(=O)C(C)(C)NC(=O)[C@@H](N)Cc1ccc(O)cc1)[C@@H](C)O)[C@@H](C)CC)[C@@H](C)CC)C(=O)N[C@@H](C)C(=O)N[C@@H](CCC(N)=O)C(=O)N[C@@H](CCCNC(=N)N)C(=O)N[C@@H](CCCCNC(=O)COCCOCCNC(=O)COCCOCCNC(=O)CC[C@H](NC(=O)CC[C@H](NC(=O)CCCCCCCCCCCCCCCC(=O)O)C(=O)O)C(=O)O)C(=O)N[C@@H](Cc1ccccc1)C(=O)N[C@H](C(=O)N[C@@H](CCC(=O)O)C(=O)N[C@@H](Cc1c[nH]c2ccccc12)C(=O)N[C@@H](CC(C)C)C(=O)N[C@@H](CC(C)C)C(=O)N[C@@H](C)C(=O)N[C@@H](CCC(N)=O)C(=O)N[C@@H](CCCNC(=N)N)C(=O)N1CCC[C@H]1C(=O)N[C@@H](CO)C(=O)N[C@@H](CO)C(=O)NCC(=O)N[C@@H](C)C(=O)N1CCC[C@H]1C(=O)N1CCC[C@H]1C(=O)N1CCC[C@H]1C(=O)N[C@@H](CO)C(=O)O)C(C)C [Compound 135] (H-Y[Aib]EGTFISDYSIALDKIAQRK([AEEA-AEEA-γGlu-γGlu-C17 diacid])FVEWLLAQRPSSGAPPPS-OH) | ≥ 30 mg/mL | ≥ 15 mg/mL | – | – |
| CC[C@H](C)[C@H](NC(=O)[C@H](CO)NC(=O)[C@H](Cc1ccc(O)cc1)NC(=O)[C@H](CC(=O)O)NC(=O)[C@H](CO)NC(=O)[C@@H](NC(=O)[C@H](Cc1ccccc1)NC(=O)[C@@H](NC(=O)CNC(=O)[C@H](CCC(=O)O)NC(=O)C(C)(C)NC(=O)[C@@H](N)Cc1ccc(O)cc1)[C@@H](C)O)[C@@H](C)CC)C(=O)N[C@@H](C)C(=O)NC(C)(C)C(=O)N[C@@H](CC(=O)O)C(=O)N[C@@H](CCCCN)C(=O)N[C@@H](C)C(=O)N[C@@H](C)C(=O)N[C@@H](CCC(N)=O)C(=O)N[C@@H](CCC(N)=O)C(=O)N[C@@H](CCCCNC(=O)COCCOCCNC(=O)COCCOCCNC(=O)CC[C@H](NC(=O)CC[C@H](NC(=O)CCCCCCCCCCCCCCCCC(=O)O)C(=O)O)C(=O)O)C(=O)N[C@@H](Cc1ccccc1)C(=O)N[C@H](C(=O)N[C@@H](CCC(=O)O)C(=O)N[C@@H](Cc1c[nH]c2ccccc12)C(=O)N[C@@H](CC(C)C)C(=O)N[C@@H](CC(C)C)C(=O)N[C@@H](C)C(=O)N[C@@H](CCC(N)=O)C(=O)N[C@@H](CCCNC(=N)N)C(=O)NCC(=O)O)C(C)C [Compound 157] (H-Y[Aib]EGTFISDYSIA[Aib]DKAAQQK([AEEA-AEEA-γGlu-γGlu-C18 diacid])FVEWLLAQRG-OH) | – | – | ≥ 15 mg/mL | ≥ 30 mg/mL |
| CC[C@H](C)[C@H](NC(=O)[C@H](CO)NC(=O)[C@H](Cc1ccc(O)cc1)NC(=O)[C@H](CC(=O)O)NC(=O)[C@H](CO)NC(=O)[C@@H](NC(=O)[C@H](Cc1ccccc1)NC(=O)[C@@H](NC(=O)CNC(=O)[C@H](CCC(=O)O)NC(=O)C(C)(C)NC(=O)[C@H](Cc1ccc(O)cc1)NC)[C@@H](C)O)[C@@H](C)CC)C(=O)N[C@@H](C)C(=O)N[C@@H](CC(C)C)C(=O)N[C@@H](CC(=O)O)C(=O)N[C@@H](CCCNC(=N)N)C(=O)NC(C)(C)C(=O)N[C@@H](CCCCNC(=O)COCCOCCNC(=O)COCCOCCNC(=O)CC[C@H](NC(=O)CC[C@H](NC(=O)CCCCCCCCCCCCCCCCCCC(=O)O)C(=O)O)C(=O)O)C(=O)N[C@@H](CCC(N)=O)C(=O)NC(C)(C)C(=O)N[C@@H](CC(N)=O)C(=O)N[C@@H](Cc1ccccc1)C(=O)N[C@H](C(=O)N[C@@H](CC(N)=O)C(=O)N[C@@H](Cc1c[nH]c2ccccc12)C(=O)N[C@@H](CC(C)C)C(=O)N[C@@H](CC(C)C)C(=O)N[C@@H](C)C(=O)N[C@@H](CCC(N)=O)C(=O)N[C@@H](CO)C(=O)N1CCC[C@H]1C(=O)N[C@@H](CO)C(=O)N[C@@H](CO)C(=O)NCC(=O)N[C@@H](C)C(=O)N1CCC[C@H]1C(=O)N1CCC[C@H]1C(=O)N1CCC[C@H]1C(=O)N[C@@H](CO)C(N)=O)C(C)C [Compound 99] (H-[NMeY][Aib]EGTFISDYSIALDR[Aib]K([AEEA-AEEA-γGlu-γGlu-C20 diacid])Q[Aib]NFVNWLLAQSPSSGAPPPS-NH2) | ≥ 60 mg/mL | – | – | – |
| CC[C@H](C)[C@H](NC(=O)[C@H](CO)NC(=O)[C@H](Cc1ccc(O)cc1)NC(=O)[C@H](CC(=O)O)NC(=O)[C@H](CO)NC(=O)[C@@H](NC(=O)[C@H](Cc1ccccc1)NC(=O)[C@@H](NC(=O)CNC(=O)[C@H](CCC(=O)O)NC(=O)C(C)(C)NC(=O)[C@H](Cc1ccc(O)cc1)NC)[C@@H](C)O)[C@@H](C)CC)C(=O)N[C@@H](C)C(=O)N[C@@H](CC(C)C)C(=O)N[C@@H](CC(=O)O)C(=O)N[C@@H](CCCNC(=N)N)C(=O)NC(C)(C)C(=O)N[C@@H](CCCCNC(=O)COCCOCCNC(=O)COCCOCCNC(=O)CC[C@H](NC(=O)CCCCCCCCCCCCCCCC(=O)O)C(=O)O)C(=O)N[C@@H](CCC(N)=O)C(=O)NC(C)(C)C(=O)N[C@@H](CC(N)=O)C(=O)N[C@@H](Cc1ccccc1)C(=O)N[C@H](C(=O)N[C@@H](CC(N)=O)C(=O)N[C@@H](Cc1c[nH]c2ccccc12)C(=O)N[C@@H](CC(C)C)C(=O)N[C@@H](CC(C)C)C(=O)N[C@@H](C)C(=O)N[C@@H](CCC(N)=O)C(=O)N[C@@H](CO)C(=O)N1CCC[C@H]1C(=O)N[C@@H](CO)C(=O)N[C@@H](CO)C(=O)NCC(=O)N[C@@H](C)C(=O)N1CCC[C@H]1C(=O)N1CCC[C@H]1C(=O)N1CCC[C@H]1C(=O)N[C@@H](CO)C(N)=O)C(C)C [Compound 268] (H-[NMeY][Aib]EGTFISDYSIALDR[Aib]K([AEEA-AEEA-γGlu-C17 diacid])Q[Aib]NFVNWLLAQSPSSGAPPPS-NH2) | ≥ 10 mg/mL | – | – | – |
| CC[C@H](C)[C@H](NC(=O)[C@H](CO)NC(=O)[C@H](Cc1ccc(O)cc1)NC(=O)[C@H](CC(=O)O)NC(=O)[C@H](CO)NC(=O)[C@@H](NC(=O)[C@H](Cc1ccccc1)NC(=O)[C@@H](NC(=O)CNC(=O)[C@H](CCC(=O)O)NC(=O)C(C)(C)NC(=O)[C@H](Cc1ccc(O)cc1)NC)[C@@H](C)O)[C@@H](C)CC)C(=O)N[C@@H](C)C(=O)N[C@@H](CC(C)C)C(=O)N[C@@H](CC(=O)O)C(=O)N[C@@H](CCCNC(=N)N)C(=O)NC(C)(C)C(=O)N[C@@H](C)C(=O)N[C@@H](CCC(N)=O)C(=O)NC(C)(C)C(=O)N[C@@H](CC(=O)O)C(=O)N[C@@H](Cc1ccccc1)C(=O)N[C@H](C(=O)N[C@@H](CC(N)=O)C(=O)N[C@@H](Cc1c[nH]c2ccccc12)C(=O)N[C@@H](CC(C)C)C(=O)N[C@@H](CC(C)C)C(=O)N[C@@H](C)C(=O)N[C@@H](CCCCNC(=O)COCCOCCNC(=O)COCCOCCNC(=O)CC[C@H](NC(=O)CC[C@H](NC(=O)CCCCCCCCCCCCCCCCC(=O)O)C(=O)O)C(=O)O)C(=O)N[C@@H](CCCNC(=N)N)C(=O)NCC(=O)NCC(=O)NCC(=O)NCC(=O)N[C@@H](CO)C(N)=O)C(C)C [Compound 57] (H-[NMeY][Aib]EGTFISDYSIALDR[Aib]AQ[Aib]DFVNWLLAK([AEEA-AEEA-γGlu-γGlu-C18 diacid])RGGGGS-NH2) | – | – | ≥ 15 mg/mL | ≥ 30 mg/mL |
